Measured values from patent US8129197B2, “Cholesterol loaded insect cell membranes as test proteins” (SOLVO Biotechnológial ZRT., priority 2006, dated 2012).
Residue numbers refer to the chain shown, from its start. Like-named read-outs stand apart in the source and are kept apart here. Blank lines part the entries; values can stand above or below the molecule they belong to.

What was measured:
[1] = molecular target: ratBsep (Rattus norvegicus, UniProt O70127)
Protocol: (§1) Measurement of the vesicular transport activity in case of Bsep: The transport activity measurements were carried out with purified membrane vesicles containing human, rat or mouse Bsep (ABCB11, sPgp) transporter isolated from baculovirus infected Sf9 (Spodoptera frugiperda)cells. The membrane preparations contain 5-16% closed, inside-out oriented, membrane vesicles. The transporter pumps the molecules inside of these vesicles. The vesicles can be separated by rapid filtration of the membrane suspension through a glass filter or through a nitrocellulose membrane (using vacuum).
(§2) The quantitative determination of the transported molecule can be done in several ways, like: HPLC, LC/MS, but also fluorescent or radioactive labeling is also suitable. Tritium labeled substrates were used in the assays and the mode of detection was liquid-scintillation.
(§3) Assay Design and Main Steps for Bsep • Prepare an appropriate concentration of membrane suspension in assay buffer; add the unlabeled and ^3H-labeled substrates to the suspension.

[2] = molecular target: humanBSEP (Homo sapiens, UniProt O95342)
Protocol: as §1, §2, §3

[3] = molecular target: T1, mouseBsep (Mus musculus, UniProt Q9QY30)
T1 sequence (Q9QY30 1-1321): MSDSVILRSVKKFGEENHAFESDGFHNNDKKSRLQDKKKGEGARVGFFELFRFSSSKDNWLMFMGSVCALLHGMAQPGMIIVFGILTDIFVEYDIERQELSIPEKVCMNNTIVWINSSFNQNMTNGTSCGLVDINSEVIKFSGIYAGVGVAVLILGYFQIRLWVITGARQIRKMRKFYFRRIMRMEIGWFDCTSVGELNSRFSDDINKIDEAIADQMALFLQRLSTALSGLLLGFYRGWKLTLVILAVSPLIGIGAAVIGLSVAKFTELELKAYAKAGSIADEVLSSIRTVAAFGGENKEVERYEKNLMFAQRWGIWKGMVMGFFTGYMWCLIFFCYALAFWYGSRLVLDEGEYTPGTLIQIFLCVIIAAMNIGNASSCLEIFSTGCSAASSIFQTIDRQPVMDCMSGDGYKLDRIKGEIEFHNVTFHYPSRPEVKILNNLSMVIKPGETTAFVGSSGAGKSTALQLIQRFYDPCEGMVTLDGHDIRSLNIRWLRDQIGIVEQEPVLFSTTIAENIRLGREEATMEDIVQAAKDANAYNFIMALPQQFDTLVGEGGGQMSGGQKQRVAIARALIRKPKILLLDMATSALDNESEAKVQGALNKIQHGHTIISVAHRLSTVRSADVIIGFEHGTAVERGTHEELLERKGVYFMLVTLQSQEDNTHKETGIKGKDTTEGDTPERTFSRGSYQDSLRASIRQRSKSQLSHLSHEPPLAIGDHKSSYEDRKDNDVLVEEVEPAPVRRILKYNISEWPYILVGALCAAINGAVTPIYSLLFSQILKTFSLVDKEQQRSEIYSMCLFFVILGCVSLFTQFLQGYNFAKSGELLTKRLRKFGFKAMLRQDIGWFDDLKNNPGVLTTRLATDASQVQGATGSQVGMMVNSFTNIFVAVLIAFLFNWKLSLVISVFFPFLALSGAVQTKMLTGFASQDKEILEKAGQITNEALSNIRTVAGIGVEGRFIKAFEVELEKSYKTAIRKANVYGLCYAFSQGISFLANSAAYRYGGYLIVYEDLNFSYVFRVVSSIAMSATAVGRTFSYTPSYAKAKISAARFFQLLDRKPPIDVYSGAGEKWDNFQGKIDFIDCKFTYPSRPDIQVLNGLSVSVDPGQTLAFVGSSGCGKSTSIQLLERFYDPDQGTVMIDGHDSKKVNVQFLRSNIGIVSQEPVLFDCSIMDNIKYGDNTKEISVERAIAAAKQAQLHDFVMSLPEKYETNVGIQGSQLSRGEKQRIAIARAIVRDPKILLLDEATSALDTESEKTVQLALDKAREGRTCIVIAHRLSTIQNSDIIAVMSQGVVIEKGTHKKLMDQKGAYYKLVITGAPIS
Protocol: as §1, §2, §3

[4] = molecular target: T2, wild-type ABCG2 (Homo sapiens, UniProt Q9UNQ0); test: Vesicular transport assay, inside-out ABCG2-Sf9 membrane vesicles
T2 sequence (Q9UNQ0 1-655): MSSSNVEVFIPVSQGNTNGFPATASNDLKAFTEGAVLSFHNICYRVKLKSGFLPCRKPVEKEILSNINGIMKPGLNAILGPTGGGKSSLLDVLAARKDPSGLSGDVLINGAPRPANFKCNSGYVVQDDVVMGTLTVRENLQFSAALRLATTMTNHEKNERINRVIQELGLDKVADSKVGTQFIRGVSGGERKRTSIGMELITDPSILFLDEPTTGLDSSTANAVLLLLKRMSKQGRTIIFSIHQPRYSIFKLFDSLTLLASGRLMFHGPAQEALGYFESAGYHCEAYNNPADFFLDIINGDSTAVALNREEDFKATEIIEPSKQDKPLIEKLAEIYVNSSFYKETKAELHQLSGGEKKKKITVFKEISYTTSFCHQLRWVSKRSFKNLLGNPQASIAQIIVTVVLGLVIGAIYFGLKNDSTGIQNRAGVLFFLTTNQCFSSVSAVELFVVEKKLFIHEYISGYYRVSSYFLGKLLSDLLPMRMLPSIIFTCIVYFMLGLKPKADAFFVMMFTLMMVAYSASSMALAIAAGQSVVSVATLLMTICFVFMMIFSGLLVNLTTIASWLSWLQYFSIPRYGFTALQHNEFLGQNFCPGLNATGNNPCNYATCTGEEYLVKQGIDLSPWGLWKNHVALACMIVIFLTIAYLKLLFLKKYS
Protocol: as §1, with “activity:” for “activity in case of Bsep:”, “ABCG2” for “human, rat”, “or” for “or mouse”, “Bsep” for “Bsep (ABCB11, sPgp) transporter”, “frugiperda) cells or mammalian (ABCG2-M) cells.” for “frugiperda)cells.”, “rapidly filtrating” for “rapid filtration”
as §2
Measurement of the vesicular transport activity in case of ABCG2: More closely, as examples, inside-out membrane vesicles were incubated in the presence or absence of 4 mM ATP. […] The transport was stopped by addition of cold wash buffer (40 mM MOPS-Tris (pH 7.0), 70 mM KCl).
The transport was stopped by addition of cold wash buffer (10 mM Tris-HCl, pH 7.4; 250 mM sucrose and 100 mM NaCl).
For estrone-3-sulfate vesicular transport 10 mM Tris-HCl, (pH 7.4), 250 mM sucrose, and 10 mM MgCl2 containing buffer were incubated at 32° C. for 1 min. The transport was stopped by addition of cold wash buffer (10 mM Tris-HCl, pH 7.4; 250 mM sucrose and 100 mM NaCl).
The incubation mix was then rapidly filtered through class B glass fiber filters (pore size, 0.1 μm). Filters were washed with 5×200 μl of ice cold wash buffer and radioactivity retained on the filter was measured by liquid scintillation counting. ATP-dependent transport was calculated by subtracting the values obtained in the absence of ATP from those in the presence of ATP.
Exemplary Assay Design and Main Steps for ABCG2 • Prepare an appropriate concentration of membrane suspension in assay buffer; add the unlabeled and ^3H-labeled substrates to the suspension.

[5] = molecular target: T2, wild-type ABCG2; details: 2 min
Protocol: Following UV-irradiation, gel-electrophoresis and electroblotting, the labeled bands were visualized by Phospho-Imager.
Isolated Sf9 cell membranes, containing the same amount of wild-type ABCG2 protein were loaded with cholesterol by preincubation with 4 mM C-CD, as described in the Methods. Cholesterol-loaded membrane vesicles contained 50 μg cholesterol/mg membrane protein, while the control membranes contained 8 μg cholesterol/mg membrane protein.

[6] = molecular target: T3, R482G-ABCG2 (Homo sapiens, UniProt Q9UNQ0, R482G); test: Vesicular MTX transport, Sf9 vesicles with R482G variant; type: biochemical; details: control and cholesterol-loaded Sf9 membrane vesicles
T3 construct: made in house; host or cells: Sf9 cells infected with recombinant baculovirus
T3 sequence (Q9UNQ0 1-655 R482G): T2 sequence (Q9UNQ0 1-655) with R482G
Protocol: MTX uptake was measured at 100 μM MTX concentration for 5 min at 37° C. in membrane vesicles containing the human wild-type ABCG2 (WT), or R482G-ABCG2 (G) transporter.
MTX and ESG uptake was measured for 5 min at 37° C. at 5 mM ATP in membrane vesicles containing the human wild-type ABCG2 (WT), or R482G-ABCG2 (G) transporter. […] The mean values±SD are presented.
Vesicular transport studies: In these experiments we carried out direct, ATP-dependent substrate transport measurements by using isolated inside-out membrane vesicles of ABCG2-expressing Sf9 cells.

[7] = molecular target: T4, ABCG2-R482T (Homo sapiens, UniProt Q9UNQ0, R482T); test: Vesicular MTX transport, Sf9 vesicles with R482T variant; type: biochemical; details: irrespective of the membrane cholesterol content
T4 construct: made in house; host or cells: Sf9 cells infected with recombinant baculovirus
T4 sequence (Q9UNQ0 1-655 R482T): T2 sequence (Q9UNQ0 1-655) with R482T

Chain of humanBSEP (O95342 whole entry): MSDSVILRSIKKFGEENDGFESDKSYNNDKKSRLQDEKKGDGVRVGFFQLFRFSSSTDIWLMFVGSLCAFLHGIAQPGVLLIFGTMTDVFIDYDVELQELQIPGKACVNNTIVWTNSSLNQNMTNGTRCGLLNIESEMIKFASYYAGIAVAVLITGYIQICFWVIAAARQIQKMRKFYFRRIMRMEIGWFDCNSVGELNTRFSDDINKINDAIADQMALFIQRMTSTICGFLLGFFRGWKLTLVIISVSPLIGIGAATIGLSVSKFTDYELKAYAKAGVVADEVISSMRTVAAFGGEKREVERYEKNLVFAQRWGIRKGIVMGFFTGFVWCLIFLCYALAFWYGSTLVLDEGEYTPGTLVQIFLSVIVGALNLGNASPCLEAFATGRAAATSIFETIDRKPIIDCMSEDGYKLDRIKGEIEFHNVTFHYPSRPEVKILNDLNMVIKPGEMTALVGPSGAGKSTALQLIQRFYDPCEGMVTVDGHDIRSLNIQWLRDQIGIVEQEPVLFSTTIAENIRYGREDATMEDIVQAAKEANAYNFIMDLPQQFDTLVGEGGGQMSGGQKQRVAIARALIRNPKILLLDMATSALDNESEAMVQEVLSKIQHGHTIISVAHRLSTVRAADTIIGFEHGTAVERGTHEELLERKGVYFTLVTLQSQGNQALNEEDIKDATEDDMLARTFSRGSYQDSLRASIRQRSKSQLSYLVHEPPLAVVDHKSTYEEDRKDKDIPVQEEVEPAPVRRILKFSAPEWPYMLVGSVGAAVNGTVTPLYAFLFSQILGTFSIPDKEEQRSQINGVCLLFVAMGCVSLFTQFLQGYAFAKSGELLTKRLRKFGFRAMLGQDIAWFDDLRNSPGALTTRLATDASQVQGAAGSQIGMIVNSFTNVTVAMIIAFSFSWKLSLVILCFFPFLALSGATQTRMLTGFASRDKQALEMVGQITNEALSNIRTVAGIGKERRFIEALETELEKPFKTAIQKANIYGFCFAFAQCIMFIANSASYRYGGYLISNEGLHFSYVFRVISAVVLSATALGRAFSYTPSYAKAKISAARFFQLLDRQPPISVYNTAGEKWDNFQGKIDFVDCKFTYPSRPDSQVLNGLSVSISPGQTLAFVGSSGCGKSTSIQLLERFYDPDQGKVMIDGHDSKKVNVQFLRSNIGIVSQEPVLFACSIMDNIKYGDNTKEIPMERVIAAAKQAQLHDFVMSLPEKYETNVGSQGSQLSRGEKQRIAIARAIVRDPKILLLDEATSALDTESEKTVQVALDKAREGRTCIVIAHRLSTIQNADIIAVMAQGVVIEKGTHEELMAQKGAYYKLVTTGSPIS
Chain of ratBsep (O70127 whole entry): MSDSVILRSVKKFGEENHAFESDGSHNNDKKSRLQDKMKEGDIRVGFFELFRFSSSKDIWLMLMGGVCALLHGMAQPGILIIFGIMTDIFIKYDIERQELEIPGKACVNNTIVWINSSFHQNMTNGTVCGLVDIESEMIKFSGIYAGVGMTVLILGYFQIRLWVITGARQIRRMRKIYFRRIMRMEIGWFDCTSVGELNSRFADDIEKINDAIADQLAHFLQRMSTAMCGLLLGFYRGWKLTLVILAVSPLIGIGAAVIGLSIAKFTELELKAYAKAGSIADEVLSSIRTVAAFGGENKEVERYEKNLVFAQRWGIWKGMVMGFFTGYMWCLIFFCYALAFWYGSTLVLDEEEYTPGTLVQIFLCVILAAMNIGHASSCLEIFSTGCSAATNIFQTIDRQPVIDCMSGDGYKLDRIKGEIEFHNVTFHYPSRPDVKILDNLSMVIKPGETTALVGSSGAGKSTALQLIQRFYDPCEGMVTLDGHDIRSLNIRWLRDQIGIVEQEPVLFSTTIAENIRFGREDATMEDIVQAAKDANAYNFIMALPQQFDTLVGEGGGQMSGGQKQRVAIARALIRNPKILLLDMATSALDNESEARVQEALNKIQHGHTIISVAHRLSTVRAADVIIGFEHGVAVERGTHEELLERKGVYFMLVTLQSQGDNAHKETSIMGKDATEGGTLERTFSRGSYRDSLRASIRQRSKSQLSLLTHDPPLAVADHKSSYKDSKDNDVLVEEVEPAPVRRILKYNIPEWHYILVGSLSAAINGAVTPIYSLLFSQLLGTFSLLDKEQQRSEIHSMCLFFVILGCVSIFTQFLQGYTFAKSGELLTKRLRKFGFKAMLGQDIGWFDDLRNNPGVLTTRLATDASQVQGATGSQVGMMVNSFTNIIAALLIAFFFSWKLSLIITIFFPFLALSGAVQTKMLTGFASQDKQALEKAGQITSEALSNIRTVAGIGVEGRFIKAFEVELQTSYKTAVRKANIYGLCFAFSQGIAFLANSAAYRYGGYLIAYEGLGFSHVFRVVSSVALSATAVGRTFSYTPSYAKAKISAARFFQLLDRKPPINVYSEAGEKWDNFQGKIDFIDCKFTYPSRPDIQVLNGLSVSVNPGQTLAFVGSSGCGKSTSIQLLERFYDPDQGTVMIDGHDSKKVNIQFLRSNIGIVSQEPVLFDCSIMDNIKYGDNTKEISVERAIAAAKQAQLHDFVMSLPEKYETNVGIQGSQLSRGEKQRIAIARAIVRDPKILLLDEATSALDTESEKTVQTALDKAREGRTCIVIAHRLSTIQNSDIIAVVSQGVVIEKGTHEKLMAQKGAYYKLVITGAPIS

SMILES: C[C@H](CCC(=O)NCCS(=O)(=O)O)[C@H]1CC[C@H]2[C@@H]3[C@H](O)C[C@@H]4C[C@H](O)CC[C@]4(C)[C@H]3C[C@H](O)[C@]12C [TC, Taurocholic acid]
VMAX of taurocholate transport ([1]; ratBsep-Sf9 + Chol): 121.3 pmol TC/mg prot/min
VMAX of taurocholate transport ([1]; ratBsep-Sf9 CTRL): 14.54 pmol TC/mg prot/min
VMAX of taurocholate transport ([2]; humanBSEP-Sf9 + Chol): 323 pmol TC/mg prot/min
VMAX of taurocholate transport ([2]; humanBSEP-Sf9 CTRL): 169.4 pmol TC/mg prot/min
VMAX of taurocholate transport ([3]; mouseBsep-Sf9 + Chol): 1843 pmol TC/mg prot/min
VMAX of taurocholate transport ([3]; mouseBsep-Sf9 CTRL): 1199 pmol TC/mg prot/min

Increase of maximum transport rate of ABCG2 by increasing membrane cholesterol levels ([4]; human): up to 20 fold
mean relative value of ABCG2 labeling (basic level of nucleotide trapping) after cholesterol loading [5]: 105%
SMILES: CC(C)CCC[C@@H](C)[C@H]1CC[C@H]2[C@@H]3CC=C4C[C@@H](O)CC[C@]4(C)[C@H]3CC[C@]12C [cholesterol]

MTX transport (in words) [6]: very low
Increase of Vmax of vesicular transport by cholesterol loading [4]: six-fold
MTX transport rate [7]: below 50 pmoles/mg membrane protein/min
SMILES: CN(Cc1cnc2nc(N)nc(N)c2n1)c1ccc(C(=O)N[C@@H](CCC(=O)O)C(=O)O)cc1 [methotrexate]
